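Method: 48-hour compound exposure of cells in 96-well plates, five concentrations, linear interpolation of endpoints. GI50 is the concentration that inhibits growth by half.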 Activity calls are given as the source filed them. No stated cut-off is given here; in the data, active = GI50 up to about 1.1 µM and inactive = higher.
Assays:
Assay in all cases: growth of human tumour cells (NCI), 48 h
BT-549 = tested on: BT-549
Hs-578T = tested on: Hs-578T
MDA-N = tested on: MDA-N
T47D = tested on: T47D
DMS-273 = tested on: DMS-273
KM-20L2 = tested on: KM-20L2
LXFL 529 = tested on: LXFL 529
M19-MEL = tested on: M19-MEL

Measured: GI50

CCOC(=O)C1=CN/C(=C(/C)C(=O)OC)SC1C(=O)OCC (stereo unspecified)
inactive: BT-549 > 90.6 µM | Hs-578T > 100 µM | MDA-N > 100 µM | T47D 57.9 µM

COCCCNc1c2ccccc2nc2ccccc12
inactive: BT-549 10.9 µM | Hs-578T 2.78 µM | MDA-N 3.09 µM | T47D 2.64 µM

COc1ccc(N2C(=O)C3c4[nH]c5ccccc5c4C4CCCCC4C3C2=O)cc1 (stereo unspecified)
inactive: DMS-273 6.75 µM | KM-20L2 39.4 µM | LXFL 529 22.2 µM | M19-MEL 28.8 µM

Clc1ccc(-c2cn3c(nc4ccccc43)c(/C=C/c3cccs3)n2)cc1
inactive: BT-549 > 100 µM | Hs-578T 43.8 µM | MDA-N > 100 µM | T47D 27.3 µM

O=C(Nc1ccc(Cl)c(Cl)c1)OCCN1c2ccccc2Sc2ccccc21
inactive: BT-549 > 10 µM | Hs-578T > 10 µM | MDA-N > 10 µM | T47D > 10 µM

Fc1c(F)c(C(F)(F)F)c(F)c(F)c1N/N=C\c1c[nH]c2ccccc12
inactive: BT-549 1.5 µM | Hs-578T 8.38 µM | MDA-N 1.72 µM | T47D 2.4 µM

Cc1cccc(NC(=O)O/N=C(\Cl)C(C)C)c1
inactive: BT-549 5.45 µM | Hs-578T 23.1 µM | MDA-N 10.5 µM | T47D 6.82 µM

O=C1C/C(=C\c2ccccc2)C(=O)c2ccccc2N1
inactive: Hs-578T 60.1 µM | MDA-N 22.9 µM | T47D 28.2 µM

C=C(C(=O)O)[C@@H]1C[C@@H](OC(C)=O)[C@]2(C)CC/C=C(\C)CCC[C@H](C)[C@H](O)[C@@H]1O2
inactive: BT-549 25.1 µM | Hs-578T 49.9 µM | MDA-N 24.5 µM | T47D > 100 µM

COc1cc2c(cc1OC)C1(c3ccccc3)CN(C2)Cc2cc(OC)c(OC)cc21
inactive: BT-549 29.8 µM | Hs-578T 27.5 µM | MDA-N > 100 µM | T47D 35.6 µM

CC(Br)CN1CCOCC1 (stereo unspecified)
inactive: BT-549 > 100 µM | Hs-578T > 100 µM | T47D > 100 µM

NC(=O)CCSC(CC(=O)c1ccc(Cl)cc1)c1ccc(Cl)cc1 (stereo unspecified)
inactive: BT-549 36.1 µM | Hs-578T 46.5 µM | MDA-N 16.7 µM | T47D 19.1 µM

CCC(C)C1=C(O)[N+]2([O-])Oc3ccc(-c4c(O)c(O)c(-c5ccc(O)cc5)c(OC(C)=O)c4OC(C)=O)cc3OC2(C(C)CC)C(=O)N1O (stereo unspecified)
inactive: MDA-N 17.1 µM | T47D > 50 µM

Nc1n2nc(-c3ccccc3)sc2n[n+]1CC(=O)c1ccccc1
inactive: BT-549 25.9 µM | Hs-578T 47.6 µM | T47D 30.4 µM

Reference: ChEMBL document CHEMBL1201862, “PubChem BioAssay data set” (2004)
